The data set deals with CYP3A4. The data set can be described thus: Midazolam drug-drug interaction assessment. The note with it: 2 mg midazolam with third once-weekly 400-mg dose of MK-8507 vs midazolam alone.

Procedure: Study 2 (protocol MK-8507-002) was a randomized, serial, 3-panel (A to C), single- and multiple-QW rising-dose trial. Single doses of 400, 800, and 1,200 mg MK-8507 or placebo tablet formulation were administered on day 1 to panels A, B, and C, respectively, to continue dose escalation beyond the dose range in study 1. Following a washout period of 3 weeks, the multiple-dose portion of the trial began. Participants in panels A, B, and C received QW doses of 100, 200, or 400 mg MK-8507 or placebo for 3 weeks (i.e., on days 22, 29, and 36), respectively. […] The PK profile of midazolam following a single oral dose alone or after multiple oral dose administration of MK-8507 was also evaluated. […]
Plasma samples collected for midazolam assay were analyzed by Syneos Health (Québec, Canada). […] The lower limit of quantitation was 20.00 pg/mL, and the analytical range was 20.00 to 20,000.00 pg/mL.
PK parameter values were calculated by noncompartmental analyses using the software Phoenix WinNonlin Professional (version 6.3) (Certara, Princeton, NJ, USA). […] AUC0–∞ and AUC0–168hr were calculated using the linear-trapezoidal method for ascending concentrations and the log-trapezoidal method for descending concentrations (linear up/log down). […]

With `Cc1ncc2n1-c1ccc(Cl)cc1C(c1ccccc1F)=NC2` [Midazolam, midazolam], the “decrease in midazolam AUC when coadministered with MK-8507” value is on record as 12% and the “decrease in midazolam Cmax when coadministered with MK-8507” value is recorded as 19%.

The record behind these values is publication PMC8597757, “Pharmacokinetic and Safety Profile of the Novel HIV Nonnucleoside Reverse Transcriptase Inhibitor MK-8507 in Adults without HIV” (Antimicrobial Agents and Chemotherapy, 2021).
